In one assay the test system is AMPK. The experiment in a line: Immunoblot of phospho-Thr172 AMPK and phospho-Ser79 ACC in MEFs. To be noted: 2 mM AICAR for 2 h. It is filed as cell-based, mouse. How it is done: FIG. 3a: Littermate MEFs of the indicated LKB1 genotypes were left untreated (NT) or treated with 0.1 mM H2O2 for 20 mins or 2 mM AICAR for 2 h. Total cell extracts were immunoblotted for phospho-Thr 172 AMPK or phospho Ser79 ACC, as well as for total AMPK and LKB1. FIG. 3b: An immortalized LKB1-deficient MEF cell line was reconstituted with human (hu) or mouse (ms) WT or KD LKB1 expressing retroviruses. The asterisk (*) represents a background band that serves as a loading control.
(§1) FIG. 6A: Subconfluent cycling littermate-matched primary MEFs of the indicated genotype were left untreated (NT) or were treated with 2 mM AICAR for 2 h. Total cell extracts were immunoblotted for phospho-Thr172 AMPK (P-AMPK), phospho Ser79 ACC (P-ACC), phospho-Thr389 S6K1 (P-S6K1), phospho-Ser9 GSK-3b (P-GSK-3), and phospho-Ser235/236 S6 ribosomal protein (P-S6). FIG. 6B: An immortalized LKB1−/− MEF cell line was reconstituted with vector (v), wild-type (wt) or kinase-dead (kd) human LKB1-expressing retroviruses. Cells were treated as in FIG. 6A. eIF4E was used as a loading control. *represents a cross-reactive band with the anti-LKB1 antisera as characterized previously (Shaw et al. (2004) Proc. Natl. Acad. Sci. USA 101, 3329-3335). FIG. 6C: Endogenous 5′ cap complexes were isolated from LKB1 primary MEFs as in A. 10% of the total cell lysate is shown in the left panels; cap complexes purified on 7-methyl sepharose are shown in right panels. Each were immunoblotted with total 4E-BP1 and eIF4E antibodies. eIF4E is shown as a loading control. FIG. 6D: Hela cells (which are LKB1-deficient) were transiently transfected with vector, FLAG-tagged wild-type, or kinase-dead LKB1 along with an HA-tagged S6K1 or an HA-tagged 4E-BP1 construct, then treated where indicated with 2 mM AICAR for 2 h. S6K1-immunoprecipitates were immunoblotted for activating phosphorylation of S6K1 as before, as well with anti-HA to control for levels. Lysates were immunoblotted with anti-FLAG to detect levels of LKB1 and with anti-HA to detect phosphorylation induced changes in 4E-BP1 mobility on SDS-PAGE.
Kinase Assays and Cellular Analysis: AMPK kinase activity was measured using the SAMS peptide as previously described (7). LKB1 phosphorylation of AMPK was carried out in kinase buffer (50 mM Tris pH 7.5, 10 mM MgCl2, 1 mM DTT, 100 μM ATP) for 20 mins at 30° C. For immunopreciptations of active LKB1 kinase, Flag-tagged LKB1 was co-transfected with an equimolar amount of STRAD expression plasmid into HT1080 cells and immunoprecipitated using M2-agarose (Sigma) 24 h post-transfection in NP40 lysis buffer26. Before kinase assays, immunoprecipitated LKB1 was washed 3× in lysis buffer then 2× in kinase buffer. Soluble MBP-AMPK was added at 5 μg per kinase reaction. […]
For orientation: A western blot detects proteins with antibodies after separation by electrophoresis.

The next assay has as its system mTOR signaling. The experiment in a line: mTOR signaling (S6K1, 4E-BP1 phosphorylation) in transfected HeLa cells. The format is cell-based, human. To be noted: HeLa cells with wild-type LKB1, 2 mM AICAR for 2 h. How it is done: as §1, with “S6K1-immunoprecipitates were immunoblotted for activating phosphorylation of S6K1 as before, as well with anti-HA to control for levels. Lysates were immunoblotted with anti-FLAG to detect levels of LKB1 and with anti-HA to detect phosphorylation induced changes in 4E-BP1 mobility on SDS-PAGE.” left out

Regarding `NC(=O)c1ncn([C@@H]2O[C@H](CO)[C@@H](O)[C@H]2O)c1N` [AICAR, 5-aminoimidazole-4-carboxamide 1-β-D-ribofuranoside], the “Thr172 phosphorylation of AMPK” value in the assay with AMPK (LKB1 null MEFs) is “complete loss of Thr172 phosphorylation”. Also, the “phosphorylation of ACC (Ser79)” value with AMPK (LKB1 null MEFs) is reported as “nearly abolished”. In addition, the AMPK activation entry was “severely attenuated” with AMPK (Lkb1-deficient fibroblasts) and “activated” with AMPK (wild-type MEFs). The “S6K1 and 4E-BP1 phosphorylation” value in the assay with mTOR signaling is given as “inhibition”.

Values taken from patent publication US20120122991A1, “METHOD FOR TREATING CANCER BY INCREASING AMP-ACTIVATED KINASE ACTIVITY” (Dana-Farber Cancer Institute, Inc., priority 2003, published 2012).
